Results taken from article PMC7764601 (Molecules, 2020).
Where two headings read alike, the source gives them in different places. Marks after values point to notes of the source that are not given here.

Experiments:
mice [1] = assay: “Writhing” test in mice (phenylbenzoquinone); assay type: in vivo; settings: for Mean no. of writhing ± SEM: i.p.
Description: (§1) The experiments were carried out on male albino Swiss mice (body weight 18–26 g). All of the animals were housed at constant humidity (60%) and temperature (25 °C) and kept on a 12 h light/dark cycle. Animals were fed a standard pellet diet with free access to tap water. All procedures were conducted according to Animal Care and Use Committee guidelines, and approved by the Ethical Committee of Jagiellonian University, Kraków.
(§2) Control and experimental groups consisted of 6–8 animals each. The investigated compounds were administered intraperitoneally as a suspension in 0.5% methylcellulose in a constant volume of 10 mL/kg.
(§3) The statistical significance was calculated using a Student’s t-test. The ED50 values and their confidence limits were calculated according to the method of Litchfield and Wilcoxon.
(§4) Pain reactivity was measured in two tests: “hot plate” test (according to the method of Eddy and Leimbach) and “writhing” test in mice (according to Hendershot and Forsaith).
Then, after 25 min, the irritant (phenylbenzoquinone, 0.02% solution, ethanol-water, 5:95) was also administered intraperitoneally in a constant volume of 0.25 mL. Five min after the application of the irritant,a 10 min long period of observation started, in which the number of writhing episodes was counted.
The analgesic effect of individual doses was expressed in percent:(1) % Analgesic effect=100−∑ of writing incidents in experimental group/∑ of writhing incidents in control group×100

mice [2] = assay: “Hot plate” test in mice; assay type: in vivo; settings: for Time of Reaction to Pain Stimulus (s) ± SEM: hot plate, mice
Description: as §1, §2, §3, §4
Animals were placed individually on the metal plate, heated to 55 ± 1 °C. The latency time (s) to the pain reaction (licking of the hind paws or jumping) was recorded by a stop-watch. A cutoff time of 45 s was used to prevent tissue damage.

mice [3] = system: mice; parameters: method as in PMID 11234340, PMID 12484538, PMID 15652370; settings: series 1, cited from earlier work
mice [4] = settings: compounds obtained previously (series 1 and 2); cited from earlier work
mice [5] = system: mice; parameters: method as in PMID 11234340, PMID 12484538, PMID 15652370; settings: cited from earlier work; for % Inh. of locomotor activity: series 1; for ED50, influence on the locomotor activity: imides described previously (series 1)
[6] = Mus musculus, ip, 0.5 h, read-out: Prolonged Time (%)

CC(=O)Oc1ccccc1C(=O)O [ASA, Acetylicacid, reference compound]
ED50 (mice [1]; Mus musculus, ip, confidence limits in parentheses, read-out: ED50 (mg/kg) ± SEM, writhing test): 39.1 mg/kg | Mean no. of writhing ± SEM (mice [1]; dose 30 mg/kg): 11.2 ± 2.1 | Mean no. of writhing ± SEM (mice [1]; dose 50 mg/kg): 8.5 ± 1.3 | Mean no. of writhing ± SEM (mice [1]; dose 100 mg/kg): 3.2 ± 1.1 | change in vivo at 100 mg/kg (mice [2]; [6]): 11.7% | change in vivo at 200 mg/kg (mice [2]; [6]): 35.2% | change in vivo at 400 mg/kg (mice [2]; [6]): 116% | ED50 (mice [2]; Mus musculus, read-out: ED50, hot plate test): 267 mg/kg | Time of Reaction to Pain Stimulus (s) ± SEM (mice [2]; dose 100 mg/kg): 16.2 ± 4.9 s | Time of Reaction to Pain Stimulus (s) ± SEM (mice [2]; dose 200 mg/kg): 19.6 ± 4.1 s | Time of Reaction to Pain Stimulus (s) ± SEM (mice [2]; dose 400 mg/kg): 31.3 ± 1.2 s

COc1nc(C)cc2c1C(=O)N(CCCN1CCN(c3ccccc3)CC1)C2=O [Compound 1H]
Thiopental Anesthesia % Prolong. (mice [3]; dose 25 mg/kg): 118% | Thiopental Anesthesia % Prolong. (mice [3]; dose 50 mg/kg): 194% | ED50, writhing test (mice [4]): 1.03 mg/kg | % Inh. of locomotor activity (mice [5]; dose 12.5 mg/kg): 47.67% | % Inh. of locomotor activity (mice [5]; dose 25 mg/kg): 53.84% | % Inh. of locomotor activity (mice [5]; dose 50 mg/kg): 66.55% | ED50, influence on the locomotor activity (mice [5]): 15.17 mg/kg

COc1nc(C)cc2c1C(=O)N(CN1CCN(c3ccccc3)CC1)C2=O [Compound 1K]
Thiopental Anesthesia % Prolong. (mice [3]; dose 2.25 mg/kg): 134.1% | Thiopental Anesthesia % Prolong. (mice [3]; dose 4.5 mg/kg): 199.1% | ED50, writhing test (mice [4]): 2.55 mg/kg | % Inh. of locomotor activity (mice [5]; dose 2.25 mg/kg): 49.23% | % Inh. of locomotor activity (mice [5]; dose 4.5 mg/kg): 61.77% | ED50, influence on the locomotor activity (mice [5]): 2.28 mg/kg

COc1ccccc1N1CCN(CN2C(=O)c3cc(C)nc(OC)c3C2=O)CC1 [Compound 1L]
Thiopental Anesthesia % Prolong. (mice [3]; dose 12.5 mg/kg): 111.6% | Thiopental Anesthesia % Prolong. (mice [3]; dose 25 mg/kg): 133.2% | Thiopental Anesthesia % Prolong. (mice [3]; dose 50 mg/kg): 184.3% | ED50, writhing test (mice [4]): 6.53 mg/kg | % Inh. of locomotor activity (mice [5]; dose 12.5 mg/kg): 37.81% | % Inh. of locomotor activity (mice [5]; dose 25 mg/kg): 40.84% | % Inh. of locomotor activity (mice [5]; dose 50 mg/kg): 68.25% | ED50, influence on the locomotor activity (mice [5]): 25.2 mg/kg

COc1nc(C)cc2c1C(=O)N(CCCCN1CCc3ccccc3C1)C2=O [Compound 1N]
Thiopental Anesthesia % Prolong. (mice [3]; dose 23 mg/kg): 100.0% | Thiopental Anesthesia % Prolong. (mice [3]; dose 46 mg/kg): 286.5% | ED50, writhing test (mice [4]): 0.72 mg/kg | % Inh. of locomotor activity (mice [5]; dose 46 mg/kg): 87.48 * %
